Key:
[1] = target: T1, full length RORγt (Homo sapiens, UniProt P51449); experiment: Full-length RORγt co-transfection with 5×RORE-Luc reporter in HEK293T cells; type: cell-based; details: 2 μM ursolic acid
T1 construct: full length RORγt was co-transfected along with a luciferase reporter; expressed in transfected cells; host or cells: HEK293T
T1 sequence (P51449 1-497 isoform P51449-2): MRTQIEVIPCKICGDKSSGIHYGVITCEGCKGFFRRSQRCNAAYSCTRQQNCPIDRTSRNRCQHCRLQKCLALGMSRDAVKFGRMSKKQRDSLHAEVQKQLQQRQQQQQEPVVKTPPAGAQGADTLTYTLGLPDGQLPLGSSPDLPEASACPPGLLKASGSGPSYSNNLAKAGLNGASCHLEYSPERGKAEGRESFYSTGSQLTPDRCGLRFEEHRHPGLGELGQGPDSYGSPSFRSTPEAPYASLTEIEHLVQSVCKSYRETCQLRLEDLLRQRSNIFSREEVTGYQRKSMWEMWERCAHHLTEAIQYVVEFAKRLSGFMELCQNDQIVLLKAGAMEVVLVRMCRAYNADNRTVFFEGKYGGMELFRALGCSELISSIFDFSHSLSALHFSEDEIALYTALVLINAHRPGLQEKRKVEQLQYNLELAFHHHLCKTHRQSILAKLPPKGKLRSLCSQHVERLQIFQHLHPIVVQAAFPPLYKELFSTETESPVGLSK
From the text: (§1) In order to determine if these compounds could modulate RORγt activity in the context of the full-length receptor, we used a co-transfection system in HEK293T cells in which full length RORγt was co-transfected along with a luciferase reporter under the control of either a basic promoter containing five copies of an ROR response element (5×RORE) or a minimal IL17 promoter.

[2] = target: T2, Gal4-RORγ (Homo sapiens, UniProt P51449); experiment: cell-based; details: HEK-293T, read-out: fold induction of reporter gene expression
T2 sequence (P51449 269-508 limits assumed): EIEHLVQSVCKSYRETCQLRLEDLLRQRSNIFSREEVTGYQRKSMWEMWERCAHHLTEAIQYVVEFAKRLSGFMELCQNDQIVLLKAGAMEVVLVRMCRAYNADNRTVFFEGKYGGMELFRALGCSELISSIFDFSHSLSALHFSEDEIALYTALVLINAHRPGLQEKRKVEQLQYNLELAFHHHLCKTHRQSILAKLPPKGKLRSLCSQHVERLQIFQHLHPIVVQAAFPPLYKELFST

[3] = target: T1, full length RORγt; experiment: Full-length RORγt co-transfection with IL17-Luc reporter in HEK293T cells; type: cell-based; details: 2 μM ursolic acid
From the text: as §1

[4] = system: EL4 cells; experiment: PD-1 surface expression in EL4 cells by flow cytometry; type: cell-based, murine; details: compound 48 hr
Description: Using flow cytometery surface PD-1 expression was analyzed to determine if the decrease in gene expression of PD-1 correlates to a decrease of the protein on the cell surface, Cell: surface PD-1 expression was measured in murine and human T cell lines as well as in ex vivo differentiated murine TH17 cells. […] Next we examined the impact of compound treatment on differentiated murine TH17 cells. […] To determine if there was an increase in the active T cell population during TH17 cell differentiation, the population of CD62L^−PD1^− double negative cells was measured using flow cytometry. […] To determine if the effects of SR0987 on PD-1 expression would be observed in a human cell line, Jurkat T cells were treated with the compound.
Gene expression and Cell sorting. Jurkat T cells were pre-incubated with compounds for 48 hr and activated with phorbol 12-myristate 13-acetate (PMA, 50 ng/mL; Sigma) and ionomycin (1 μg/mL; Sigma) for 5 hr. For qPCR, mRNA was isolated with an RNeasy midi kit using DNase I (Qiagen), and cDNA was synthesized with high capacity cDNA Reverse Transcription kit (Applied Biosystems). IL17A, PD-1, and granzyme B gene expression were normalized to the expression of GAPDH. The sequence of primers used in this study are found in Table 2. For cell sorting, activated Jurkat T cells were stained with APC conjugated anti-human PD-1 antibody (eBioscience). […]

[5] = target: T2, Gal4-RORγ; set-up: RORγt activity after pre-treatment; fold induction of reporter gene expression; other: single concentration 30 μM; induction of luciferase expression at highest concentration of the concentration response curve; other: 30 μM, 2 μM urs; luciferase reporter gene expression; details: recently identified putative endogenous agonist; cited from earlier work

## CC(C)=CCC[C@@H](C)[C@H]1CC[C@H]2[C@@H]3CC=C4C[C@@H](O)CC[C@]4(C)[C@H]3CC[C@]12C [desmosterol]
[1]
  reporter gene expression, 5×RORE promoter: minimal induction of the reporter gene
[2]
  fold induction at 30 µM: ≥ 2
[3]
  reporter gene expression, IL17 promoter: minimal induction of the reporter gene
[4]
  surface expression of PD-1: no effect
[5]
  restoring RORγt activity in the presence of ursolic acid: capable of restoring RORγt activity in the presence of ursolic acid
